Assay results from publication PMC7736581, “Activation of the IRE1 RNase through remodeling of the kinase front pocket by ATP-competitive ligands” (Nature Communications, 2020).

Key:
Test in all cases: biochemical
Design in all cases: Invitrogen kinase panel: Z'Lyte activity (ATP at Km) or LanthaScreen competitive ATP-site binding, percent inhibition
PASK = PASK (Homo sapiens, UniProt Q96RG2)
CDK9/cyclinT1 = CDK9/cyclinT1 (Homo sapiens, UniProt P50750)
EphA1 = EphA1 (Homo sapiens, UniProt P21709)
ARK5 = target: T1, ARK5 (Homo sapiens, UniProt O60285)
T1 construct: gene NUAK1

WEE1 = WEE1 (Homo sapiens, UniProt P30291)
MARK3 = MARK3 (Homo sapiens, UniProt P27448)
ZAP-70 = target: T2, ZAP-70 (Homo sapiens, UniProt P43403)
T2 construct: gene ZAP70

PAK3 = PAK3 (Homo sapiens, UniProt O75914)
MARK1 = MARK1 (Homo sapiens, UniProt Q9P0L2)
IRR = target: T3, IRR (Homo sapiens, UniProt P14616)
T3 construct: gene INSRR
T3 sequence (P14616 whole entry): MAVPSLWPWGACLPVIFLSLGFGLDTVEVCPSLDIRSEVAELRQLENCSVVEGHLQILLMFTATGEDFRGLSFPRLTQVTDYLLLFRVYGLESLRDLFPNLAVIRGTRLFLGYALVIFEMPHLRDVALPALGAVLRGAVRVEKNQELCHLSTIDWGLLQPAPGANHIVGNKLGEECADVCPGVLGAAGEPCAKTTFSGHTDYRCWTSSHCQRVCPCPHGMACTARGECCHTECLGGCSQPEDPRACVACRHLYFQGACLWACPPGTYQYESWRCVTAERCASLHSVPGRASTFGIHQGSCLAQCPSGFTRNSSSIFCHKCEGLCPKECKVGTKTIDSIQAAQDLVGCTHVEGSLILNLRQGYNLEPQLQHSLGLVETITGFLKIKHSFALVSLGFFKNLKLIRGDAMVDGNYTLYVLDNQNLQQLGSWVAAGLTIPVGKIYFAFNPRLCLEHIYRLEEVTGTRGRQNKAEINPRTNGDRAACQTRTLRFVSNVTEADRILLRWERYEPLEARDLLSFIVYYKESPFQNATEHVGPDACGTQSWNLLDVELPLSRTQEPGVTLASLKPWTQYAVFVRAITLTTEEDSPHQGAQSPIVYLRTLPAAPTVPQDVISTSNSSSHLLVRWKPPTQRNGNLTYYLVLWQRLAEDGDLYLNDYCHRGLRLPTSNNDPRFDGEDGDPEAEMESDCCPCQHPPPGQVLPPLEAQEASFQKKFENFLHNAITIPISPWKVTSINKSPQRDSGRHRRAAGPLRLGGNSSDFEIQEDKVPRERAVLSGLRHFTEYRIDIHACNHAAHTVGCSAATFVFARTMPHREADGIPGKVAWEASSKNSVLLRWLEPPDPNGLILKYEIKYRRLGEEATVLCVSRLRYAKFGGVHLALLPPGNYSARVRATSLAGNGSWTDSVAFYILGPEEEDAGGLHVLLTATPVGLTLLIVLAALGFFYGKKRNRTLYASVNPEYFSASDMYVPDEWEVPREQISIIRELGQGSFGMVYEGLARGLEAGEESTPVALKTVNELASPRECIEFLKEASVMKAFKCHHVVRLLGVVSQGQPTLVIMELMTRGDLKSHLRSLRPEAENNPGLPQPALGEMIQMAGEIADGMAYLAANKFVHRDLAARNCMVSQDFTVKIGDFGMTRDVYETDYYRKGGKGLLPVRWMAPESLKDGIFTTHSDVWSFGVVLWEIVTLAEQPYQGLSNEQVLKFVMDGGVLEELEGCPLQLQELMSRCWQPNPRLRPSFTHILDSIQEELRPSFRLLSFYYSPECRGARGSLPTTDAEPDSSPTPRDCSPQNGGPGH

PAK6 = PAK6 (Homo sapiens, UniProt Q9NQU5)
IGF1R = IGF1R (Homo sapiens, UniProt P08069)
EphA8 = EphA8 (Homo sapiens, UniProt P29322)
EphA8, sequence (P29322 whole entry): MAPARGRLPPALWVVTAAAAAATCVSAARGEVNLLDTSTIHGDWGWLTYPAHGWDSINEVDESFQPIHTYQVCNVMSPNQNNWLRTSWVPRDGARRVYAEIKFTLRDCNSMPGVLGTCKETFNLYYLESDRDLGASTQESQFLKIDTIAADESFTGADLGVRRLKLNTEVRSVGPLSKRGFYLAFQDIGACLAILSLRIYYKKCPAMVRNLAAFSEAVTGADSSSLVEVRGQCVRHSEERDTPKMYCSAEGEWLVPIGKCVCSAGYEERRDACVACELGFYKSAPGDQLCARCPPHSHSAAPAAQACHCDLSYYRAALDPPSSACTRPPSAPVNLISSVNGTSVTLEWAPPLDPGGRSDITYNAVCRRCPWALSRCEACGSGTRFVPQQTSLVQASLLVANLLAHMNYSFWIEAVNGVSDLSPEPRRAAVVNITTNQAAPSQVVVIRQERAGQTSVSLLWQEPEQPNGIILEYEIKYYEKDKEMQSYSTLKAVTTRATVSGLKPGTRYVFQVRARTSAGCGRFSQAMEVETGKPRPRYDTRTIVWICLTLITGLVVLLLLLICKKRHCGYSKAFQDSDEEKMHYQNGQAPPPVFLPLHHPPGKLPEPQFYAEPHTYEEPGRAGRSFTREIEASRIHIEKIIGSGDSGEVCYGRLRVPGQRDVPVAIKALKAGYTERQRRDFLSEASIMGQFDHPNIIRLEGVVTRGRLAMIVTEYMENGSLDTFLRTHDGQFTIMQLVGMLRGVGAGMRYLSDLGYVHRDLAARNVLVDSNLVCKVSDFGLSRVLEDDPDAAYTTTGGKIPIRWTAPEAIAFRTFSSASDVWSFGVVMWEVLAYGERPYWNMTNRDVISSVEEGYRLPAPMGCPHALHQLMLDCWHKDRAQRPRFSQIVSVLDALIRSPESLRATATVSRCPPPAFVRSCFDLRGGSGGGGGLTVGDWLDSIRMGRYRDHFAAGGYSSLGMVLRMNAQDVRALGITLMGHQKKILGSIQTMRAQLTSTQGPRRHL

TAO2 = target: T4, TAO2 (Homo sapiens, UniProt Q9UL54)
T4 construct: gene TAOK2

HIPK2 = HIPK2 (Homo sapiens, UniProt Q9H2X6)
JAK3 = JAK3 (Homo sapiens, UniProt P52333)
PKC_delta = target: T5, PKC_delta (Homo sapiens, UniProt Q05655)
T5 construct: gene PRKCD

HIPK4 = HIPK4 (Homo sapiens, UniProt Q8NE63)
HIPK4, sequence (Q8NE63 whole entry): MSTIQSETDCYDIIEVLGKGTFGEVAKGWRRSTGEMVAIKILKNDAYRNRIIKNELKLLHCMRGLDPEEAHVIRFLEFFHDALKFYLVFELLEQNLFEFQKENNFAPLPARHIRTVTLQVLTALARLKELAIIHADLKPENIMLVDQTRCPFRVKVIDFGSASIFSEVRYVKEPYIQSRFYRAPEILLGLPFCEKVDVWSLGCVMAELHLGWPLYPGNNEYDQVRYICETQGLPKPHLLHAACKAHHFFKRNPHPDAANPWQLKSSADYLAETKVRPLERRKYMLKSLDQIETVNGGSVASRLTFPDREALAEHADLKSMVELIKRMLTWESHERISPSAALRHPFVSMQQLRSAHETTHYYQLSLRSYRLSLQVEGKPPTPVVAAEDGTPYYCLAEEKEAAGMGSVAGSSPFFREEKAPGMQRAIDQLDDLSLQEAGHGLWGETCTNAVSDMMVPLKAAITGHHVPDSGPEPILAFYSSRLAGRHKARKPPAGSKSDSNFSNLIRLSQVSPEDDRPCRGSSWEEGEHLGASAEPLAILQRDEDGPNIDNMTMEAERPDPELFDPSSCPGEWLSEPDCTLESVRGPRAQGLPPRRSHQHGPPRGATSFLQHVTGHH

InsR = InsR (Homo sapiens, UniProt P06213)
CSK = CSK (Homo sapiens, UniProt P41240)
PKG1_alpha = target: T6, PKG1_alpha (Homo sapiens, UniProt Q13976)
T6 construct: gene PRKG1; isoform alpha

LRRK2 = LRRK2 (Homo sapiens, UniProt Q5S007)
GRK3 = GRK3 (Homo sapiens, UniProt P35626)
GRK3, sequence (P35626 whole entry): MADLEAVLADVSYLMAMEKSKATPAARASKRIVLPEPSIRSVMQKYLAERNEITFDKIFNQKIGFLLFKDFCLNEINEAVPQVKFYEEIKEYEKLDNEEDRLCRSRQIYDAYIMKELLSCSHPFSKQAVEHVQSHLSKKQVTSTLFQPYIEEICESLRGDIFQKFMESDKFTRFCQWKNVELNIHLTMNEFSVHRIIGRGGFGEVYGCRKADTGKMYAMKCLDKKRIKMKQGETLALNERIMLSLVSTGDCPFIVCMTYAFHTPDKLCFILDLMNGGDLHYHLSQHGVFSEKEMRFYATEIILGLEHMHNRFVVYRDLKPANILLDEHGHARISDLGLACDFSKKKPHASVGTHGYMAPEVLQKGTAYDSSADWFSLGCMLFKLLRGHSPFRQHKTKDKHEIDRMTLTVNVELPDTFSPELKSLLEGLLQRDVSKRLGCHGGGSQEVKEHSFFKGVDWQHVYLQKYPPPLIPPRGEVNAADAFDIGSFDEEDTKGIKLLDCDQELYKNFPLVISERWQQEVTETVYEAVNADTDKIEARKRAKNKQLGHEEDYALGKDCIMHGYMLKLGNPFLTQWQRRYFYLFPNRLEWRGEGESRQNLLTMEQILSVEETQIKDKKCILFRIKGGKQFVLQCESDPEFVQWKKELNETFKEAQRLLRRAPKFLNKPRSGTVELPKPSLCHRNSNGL

MYLK(smMLCK) = target: T7, MYLK(smMLCK) (Homo sapiens, UniProt Q15746)
T7 construct: smMLCK

DAPK1 = DAPK1 (Homo sapiens, UniProt P53355)

PASK, sequence (Q96RG2 whole entry): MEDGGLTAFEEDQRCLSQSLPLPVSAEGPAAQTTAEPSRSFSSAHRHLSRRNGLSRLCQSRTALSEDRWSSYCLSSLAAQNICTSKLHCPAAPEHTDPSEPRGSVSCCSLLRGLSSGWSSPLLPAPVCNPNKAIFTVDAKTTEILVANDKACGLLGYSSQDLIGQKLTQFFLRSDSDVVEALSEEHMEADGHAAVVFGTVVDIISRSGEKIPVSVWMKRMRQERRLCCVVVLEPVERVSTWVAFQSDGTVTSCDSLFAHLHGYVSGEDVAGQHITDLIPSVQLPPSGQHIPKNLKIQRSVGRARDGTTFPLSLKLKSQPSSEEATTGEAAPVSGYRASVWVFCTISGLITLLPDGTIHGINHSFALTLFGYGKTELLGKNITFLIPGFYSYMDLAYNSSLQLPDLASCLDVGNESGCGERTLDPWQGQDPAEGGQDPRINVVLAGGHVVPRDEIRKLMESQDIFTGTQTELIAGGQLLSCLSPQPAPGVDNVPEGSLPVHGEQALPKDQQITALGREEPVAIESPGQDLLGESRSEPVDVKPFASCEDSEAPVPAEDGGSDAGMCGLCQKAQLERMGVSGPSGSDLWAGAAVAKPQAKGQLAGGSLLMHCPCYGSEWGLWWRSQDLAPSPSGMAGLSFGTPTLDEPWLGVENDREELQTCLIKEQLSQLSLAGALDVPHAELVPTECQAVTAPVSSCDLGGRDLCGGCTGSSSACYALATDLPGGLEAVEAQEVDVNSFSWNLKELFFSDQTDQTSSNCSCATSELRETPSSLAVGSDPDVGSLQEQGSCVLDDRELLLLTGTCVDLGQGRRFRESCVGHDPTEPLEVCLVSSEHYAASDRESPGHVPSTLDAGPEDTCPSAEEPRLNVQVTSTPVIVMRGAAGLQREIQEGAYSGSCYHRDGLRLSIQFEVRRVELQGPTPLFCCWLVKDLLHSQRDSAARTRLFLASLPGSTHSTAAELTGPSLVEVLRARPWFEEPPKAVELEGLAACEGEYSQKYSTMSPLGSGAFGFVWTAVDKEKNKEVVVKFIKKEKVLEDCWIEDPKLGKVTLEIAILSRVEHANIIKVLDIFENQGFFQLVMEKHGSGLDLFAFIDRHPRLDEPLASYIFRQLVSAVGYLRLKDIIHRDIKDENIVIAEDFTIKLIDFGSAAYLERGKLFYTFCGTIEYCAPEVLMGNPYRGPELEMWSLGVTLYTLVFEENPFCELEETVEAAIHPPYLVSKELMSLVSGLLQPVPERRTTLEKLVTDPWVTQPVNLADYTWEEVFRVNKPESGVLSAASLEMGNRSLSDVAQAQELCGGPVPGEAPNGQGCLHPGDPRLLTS

Structure (SMILES)	inhibition at 1 µM (PASK) [%]	inhibition at 1 µM (CDK9/cyclinT1) [%]	inhibition at 1 µM (EphA1) [%]	inhibition at 1 µM (ARK5) [%]	inhibition at 1 µM (WEE1) [%]	inhibition at 1 µM (MARK3) [%]	inhibition at 1 µM (ZAP-70) [%]	inhibition at 1 µM (PAK3) [%]	inhibition at 1 µM (MARK1) [%]	inhibition at 1 µM (IRR) [%]	inhibition at 1 µM (PAK6) [%]	inhibition at 1 µM (IGF1R) [%]	inhibition at 1 µM (EphA8) [%]	inhibition at 1 µM (TAO2) [%]	inhibition at 1 µM (HIPK2) [%]	inhibition at 1 µM (JAK3) [%]	inhibition at 1 µM (PKC_delta) [%]	inhibition at 1 µM (HIPK4) [%]	inhibition at 1 µM (InsR) [%]	inhibition at 1 µM (CSK) [%]	also measured
CCOC(=O)Nc1cccc2c(Oc3ncccc3-c3ccnc(N[C@H]4CCCNC4)n3)c(C)ccc12 [G-1749]	4.5	29	7	12	-5	8	3	6.5	10	-0.5	12.5	6.5	1.5	72.5	3	-15.5	12	3.8	2.5	6	inhibition at 1 µM (PKG1_alpha): 1%; inhibition at 1 µM (LRRK2): -3.5%; inhibition at 1 µM (GRK3): -1%; inhibition at 1 µM (MYLK(smMLCK)): 1.5%; inhibition at 1 µM (DAPK1): -4%
CC#CC(=O)Nc1cccc2c(Oc3ncccc3-c3ccnc(N[C@H]4CCCNC4)n3)c(C)ccc12 [G-7658]	9.5	35	6	8	-0.5	8	4	5	9	0	11	5.5	6.5	74	2.5	-15	15	8	3	5.5	inhibition at 1 µM (PKG1_alpha): 3.5%; inhibition at 1 µM (LRRK2): 8.5%; inhibition at 1 µM (GRK3): -1.5%; inhibition at 1 µM (MYLK(smMLCK)): 6%; inhibition at 1 µM (DAPK1): -4%
